1 compound from patent publication US20180085386A1, “URIDINE MONOPHOSPHATE AND TRIPHOSPHATE DERIVATIVES, COMPOSITIONS AND METHODS OF USE” (Tufts University, priority 2016, published 2018) can be followed below.

Series [1] deals with PSAPP mice. The series can be described thus: Plaque load in cortex and hippocampus by amyloid beta immunostaining. The series is classed as in vivo, mouse. The procedure: PSB0474 was systemically administered to PSAPP mice via intraperitoneal injection for 2, 4 and 6 consecutive days. In one group, prior to evaluation and following to administration for 6 consecutive days, treatment was suspended for two weeks (6+2 weeks group). Brains were then fixed and plaque load was evaluated by immunostaining with the amyloid beta specific antibodies: β1-40 and β1-42. Representative images of plaque load in cortex and hippocampus from animals that received injections of PSB0474 according to the foregoing injection schedules are shown in FIGS. 1(A)-(D). […] Whereas, when administration of PSB0474 was stopped for 2 weeks following six consecutive days of treatment (denoted as the 6+2 weeks group), β1-40 staining rebounded; although to a level lower than observed in mice treated with saline as a vehicle control. […] FIGS. 2C-2F depict data obtained following administration of different dosages of PSB0474.
To generate these graphs showing plaque load, mice were euthanized, brain sections cut and antibodies directed against Aβ42 were used to disclose Aβ plaques. Images were acquired digitally and an algorithm was applied to threshold the image so that plaques were isolated from the background. The algorithm then calculated the percent area of the field of view occupied by the plaques.
Brain samples were collected for Abeta analysis with immunostaining. Brains samples were collected after transcardial perfusion with phosphate buffer and 4% paraformaldehyde. Floating brain sections (40 micron) were collected using a microtome. Immunostaining for […] and Aβ42 were performed according to previously established protocol. Images with DAB staining were collected with brightfield microscopy and analyzed with ImageJ Macro. All data analysis and statistics were performed in GraphPad Prism 6.0.
(§1) In this study, treatment of PSAPP mice commenced when the mice were pre-symptomatic. Specifically, treatment was initiated when the mice were approximately 3 months old. PSAPP mice were treated for 100 days with daily, intraperitoneal injections of 10 μg/kg of compound 5 or vehicle. Following treatment, mice were assessed in a fear conditioning task for memory formation. Subsequently, plaque burden in the mice was also evaluated. The data provided in Examples 16 and 17 is for 19 vehicle treated mice and 22 compound treated mice. The data provided for the vehicle-treated group is the average across those mice, and error bars depict the standard error (SEM). Similarly, the data provided for the compound-treated group is the average across those mice, and the error bars depict the SEM.
as §1, with “assessed for the following: concentration of circulating pro-inflammatory cytokines; amyloid beta load (e.g., plaque burden); and memory” for “assessed”, “formation.” for “formation. Subsequently, plaque burden in the mice was also evaluated.”, “Example 18” for “Examples 16 and 17”, “18” for “19”, “20” for “22”, “SEM. Mice were first evaluated in the fear conditioning task experiment. Subsequently, plasma was taken for multiplex cytokine analysis of circulating levels of cytokine in the plasma. Finally, plaque burden was assessed in the cortex and hippocampus of the mice.” for “SEM.”
In this study, treatment of PSAPP mice commenced after the mice were already symptomatic. Specifically, treatment was initiated when the mice were approximately 6 months old. […]

Series [2] is described as follows: Cmax after effective dose of compound 5. The settings on record: mouse, in vivo, 10 ug/kg; effective dose of 10 μg/kg.
Series [3] has as its system THP-1 cells. As to the kind of experiment: Cytokine release from human THP-1 cells (multiplex analysis of culture medium). The series is classed as cell-based. The settings on record: FIG. 19. On the procedure:
THP-1 cells, a human cell line derived from monocytes, were treated in vitro with vehicle, the P2Y6 receptor antagonist MRS 2578, or compound 5, singly or in combination. THP-1 cells were seeded in 24 well plates at a density of 4×10^5 cells/well in culture medium for 24 hours. Thereafter, vehicle, compound 5, or MRS 2578 (singly or in combination) were added to the cultures for 24 hours. Subsequently the culture medium was aspirated and subjected to multiplex cytokine analysis. Data are presented as means+/−sem. MRS 2578 has a molecular weight of about 472 and is also described using CAS number 711019-86-2.

The test system of series [4] is PSAPP mice. As to the kind of experiment: Contextual fear conditioning test (freezing). The series is classed as in vivo, mouse. The settings on record: vs vehicle. The procedure:
In this study, the diphosphate derivative of compound 5 was injected intraperitoneally into 6 to 7-month-old PSAPP and WT mice daily at two different doses, i.e., 1 μg/kg or 1 mg/kg of the diphosphate derivative of compound 5 (in 1% DMSO/PBS) for 7 consecutive days. Consistent with the results observed following acute UDP or PSB0474 treatment, treatment with the diphosphate derivative of compound 5 increased total freezing percentage in the context test in PSAPP mice (FIG. 4). […] FIG. 4 depicts the results of experiments using the contextual fear conditioning test with PSAPP mice treated with vehicle control (black bar at center of graph). […]
In this study, treatment of PSAPP mice commenced when the mice were pre-symptomatic. […] Following treatment, mice were assessed in a fear conditioning task for memory formation. Subsequently, plaque burden in the mice was also evaluated. […]
Treatment with compound 5 prevented impairments in contextual fear memory. […] Memory is assessed by the percent time that mice “freeze” 24 hours after a fear inducing electric shock. […]
In this study, treatment of PSAPP mice commenced when the mice were pre-symptomatic. […] Following treatment, mice were assessed for the following: concentration of circulating pro-inflammatory cytokines; amyloid beta load (e.g., plaque burden); and memory in a fear conditioning task for memory formation. […]

As for `O=c1ccn([C@@H]2O[C@H](CO)C(O)C2O)c(=O)n1Cc1noc2ccccc12` (stereo in doubt) [compound 5], the plaque size entry in series [1] (10 μg/kg i.p. daily for 7 days from ~6 months, Example 20, FIG. 17(B)) is listed as “decrease”. In addition, the “Amyloid beta accumulation in the cortex” value in series [1] (10 μg/kg i.p. daily for 7 days from ~6 months, using Aβ40, Example 20, FIG. 17(A) upper panel) was “decreased”; in series [1] (10 μg/kg i.p. daily for 100 days from ~3 months, vs vehicle, Example 19, FIG. 15(A)), “decreased”. Moreover, the “Amyloid beta accumulation in the hippocampus” value is “decreased” in series [1] (10 μg/kg i.p. daily for 7 days from ~6 months, using Aβ42, Example 20, FIG. 17(A) lower panel) and “decreased” in series [1] (10 μg/kg i.p. daily for 100 days from ~3 months, vs vehicle, Example 19, FIG. 15(B)). Further, the plaque burden entry in series [1] (10 μg/kg i.p. daily for 100 days from ~3 months of age, vs vehicle, Example 17, FIG. 9) is on record as “reduced”. Besides, the “size distribution of remaining plaques” value in series [1] (10 μg/kg i.p. once per day for 7 days, PS1/APP mice 26 weeks) was “significantly reduced”. Further, the Aβ40 plaque burden result in series [1] (10 μg/kg i.p. once per day for 7 days, PS1/APP mice 26 weeks, cortex, FIG. 6A) is “significantly reduced”. In series [2], this compound had a Cmax of 13 nM. Moreover, the “effect of compound 5 on release of IL-7” value in series [3] (co-treatment with MRS 2578) is listed as “abrogated”. Besides, in series [3] (compound 5 10 nM, 24 hours, vs vehicle), the “release of IL-7 into culture media” value is given as “decreased”. The “freezing time in contextual fear memory test” value in series [4] (10 μg/kg i.p. daily for 100 days from ~3 months of age, Example 17, FIG. 8) was “statistically significant increase”; in series [4] (10 μg/kg i.p. daily for 100 days from ~3 months, Example 19, FIG. 15(C)), “statistically significant increase”.
